Measurements taken from patent US8415374B2, “Combinations of hepatitis C virus inhibitors” (Bristol-Myers Squibb Company, priority 2009, dated 2013).
pEC50: −log10 of the molar value. Several values for one entry are separate records, joined by “and”; a condition that tells them apart may be missing. Equal entries are not always repeated. Where two headings read alike, the source gives them in different places.

How the values were obtained:
Type in all cases: cell-based, Hepatitis C virus
[1] = system: genotype 1a HCV replicon cells; assay: HCV replicon luciferase assay, genotype 1a (monotherapy and combination studies); settings: genotype 1a replicon, monotherapy, 3 days
[2] = system: genotype 1b HCV replicon cells; assay: HCV replicon luciferase assay, genotype 1b (monotherapy and combination studies)
Description: (§1) The Huh-7 cell-line used for these studies was obtained from Dr. Ralf Bartenschlager (University of Heidelberg, Heidelberg, Germany) and was propagated in DMEM containing 10% FBS, 10 U/ml penicillin and 10 μg/ml streptomycin. The HCV replicons used in these studies were generated at Bristol-Myers Squibb using the procedure described in WO2004014852. The coding sequence of the published genotype 1b HCV replicon (Lohmann, V., F. Korner, J.-O. Koch, U. Herian, L. Theilmann, and R. Bartenschlager 1999, Science 285:110-113) was synthesized by Operon Technologies, Inc. (Alameda, Calif.) using the sequence set forth in EMBL Accession No. AJ242652, nucleotides 1801 to 7758. The functional replicon was then assembled in plasmid pGem9zf(+) (Promega, Madison, Wis.) using standard molecular biology techniques. To create a replicon encoding a luciferase reporter, the gene encoding humanized Renilla Luciferase protein was introduced upstream of the neomycin phosphotransferase gene. The resulting replicon consists of (i) the HCV 5′ UTR fused to the first 12 amino acids of the capsid protein, (ii) the renilla luciferase gene, (iii) the neomycin phosphotransferase gene (neo), (iv) the IRES from encephalomyocarditis virus (EMCV), and (v) HCV NS3 to NS5B genes and the HCV 3′ UTR.
(§2) HCV replicon cell lines were isolated from colonies as described by Lohman, et. al (Lohmann, V., F. Korner, J.-O. Koch, U. Herian, L. Theilmann, and R. Bartenschlager 1999, Science 285:110-113) and used for all experiments. Briefly, replicon clones were linearized with ScaI and RNA transcripts synthesized in vitro using the T7 MegaScript transcription kit (Ambion, Austin, Tex.) according to manufacturer's directions. Ten to 20 μg of in vitro transcribed replicon RNA was introduced into 4−5×10^6 Huh-7 cells by transfection with DMRIE-C reagent (Invitrogen Corporation, Carlsbad, Calif.) following manufacturer's protocols. After 24 h, selective media containing 0.5 mg/mL Geneticin (G418, Gibco-BRL, Rockville, Md.) was added and media was changed every 3 to 5 days. After approximately 4 weeks, cells were expanded for further analysis. Cells were maintained at 37° C. in DMEM (Gibco-BRL, Rockville, Md.) with 10% heat inactivated calf serum (Sigma), penicillin/streptomycin, and 0.5 mg/ml G418.
(§3) To determine compound efficacy, HCV replicon cells were plated at a density of 10^4 per well in 96-well plates in DMEM media containing 10% FBS. Following incubation overnight, compounds serially diluted in DMSO, or DMSO alone, were added to individual wells to a final DMSO concentration of 0.5%. Cell plates were then incubated at 37° C. for 3 days prior to assaying for cytotoxicity and HCV inhibition. Cell viability was measured using an Alamar blue assay and CC50 values were calculated using the median effect equation.
(§4) Plates were then washed two times with PBS and renilla luciferase activity assayed using a Dual-Glo Luciferase Assay System (Promega Corporation, Madison, Wis.) according to the manufacturer's directions. Plates were read on a TopCount NXT Microplate Scintillation and Luminescence Counter (Packard Instrument Company). The 50% effective concentration (EC50) was calculated by using Excel Fit (Version 2.0, Build 30). Known x (compound concentration) and y (% relative to DMSO-only control wells) values were used to calculate the EC50 with Excel Fit equation 205, represented as y=A+((B−A)/(1+((C/x)^D))), where A and B equal the bottom and top plateaus of the curve, respectively, C equals the x value at the middle of the curve, and D equals the slope factor.
(§5) For inhibitor combination studies, IFN-α and inhibitors of HCV NS5A and the NS3 protease were each tested at eleven concentrations. Stock solutions, 200 times the desired final assay concentration, were prepared by 3-fold dilution in DMSO prior to addition to cells/media. The compounds were tested as monotherapies and in combinations with the compound of formula (I) at various concentration ratios.

HCV replicon [3] = assay: HCV replicon luciferase assay, triple combinations with lambda interferons (genotype not stated)
Description: as §1, §2, §3, §4, §5

HCV replicon [4] = assay: as above; settings: monotherapy (Table 6)

`C=C[C@@H]1C[C@]1(NC(=O)[C@@H]1C[C@@H](Oc2ncc(OC)c3ccc(Cl)cc23)CN1C(=O)[C@@H](NC(=O)OC(C)(C)C)C(C)(C)C)C(=O)NS(=O)(=O)C1CC1` [NS3 protease inhibitor of formula (II)] gave a pEC50 ([1]; Hepatitis C virus, 72 h, read-out: NS3 Protease Inhibitor EC50) of 8.11, a pEC50 ([1]; read-out: NS3 Protease Inhibitor EC50) of 8.07 and a pEC50 ([2]; Hepatitis C virus, 72 h, genotype 1b replicon, monotherapy, 3 days (Table 3), read-out: NS3 Protease Inhibitor EC50) of 9.30. The pEC50 ([2]; Hepatitis C virus, genotype 1b replicon cells, monotherapy (Table 4), read-out: NS3 Protease Inhibitor EC50) was 8.89, the pEC50 ([2]; genotype 1b replicon cells, monotherapy (Table 4), read-out: NS3 Protease Inhibitor EC50) was 8.66 and 8.72 and 8.82 and the pEC50 ([2]; genotype 1b replicon, monotherapy, 3 days (Table 3), read-out: NS3 Protease Inhibitor EC50) was 9.22. For the same compound, the pEC50 (HCV replicon [3]; Hepatitis C virus, monotherapy (Table 5), read-out: NS3 Protease Inhibitor EC50) was 9.20, the pEC50 (HCV replicon [3]; Hepatitis C virus, monotherapy (Table 6), read-out: NS3 Protease Inhibitor EC50) was 8.85 and the pEC50 (HCV replicon [3]; monotherapy (Table 5), read-out: NS3 Protease Inhibitor EC50) was 9.02 and 8.96. The pEC50 (HCV replicon [3]; monotherapy (Table 6), read-out: NS3 Protease Inhibitor EC50) was 8.92 and 8.64.
In the case of `COC(=O)N[C@H](C(=O)N1CCC[C@H]1c1ncc(-c2ccc(-c3ccc(-c4cnc([C@@H]5CCCN5C(=O)[C@@H](NC(=O)OC)C(C)C)[nH]4)cc3)cc2)[nH]1)C(C)C` [NS5A inhibitor of formula (I)], the pEC50 ([1]; Hepatitis C virus, 72 h, read-out: NS5A Inhibitor EC50) was 10.43, the pEC50 ([1]; read-out: NS5A Inhibitor EC50) was 10.35 and the pEC50 ([2]; Hepatitis C virus, 72 h, genotype 1b replicon, monotherapy, 3 days (Table 3), read-out: NS5A Inhibitor EC50) was 11.52. It also gave a pEC50 ([2]; Hepatitis C virus, genotype 1b replicon cells, monotherapy (Table 4), read-out: NS5A Inhibitor EC50) of 11.30, a pEC50 ([2]; genotype 1b replicon cells, monotherapy (Table 4), read-out: NS5A Inhibitor EC50) of 11.22 and a pEC50 (HCV replicon [3]; Hepatitis C virus, monotherapy (Table 5), read-out: NS5A Inhibitor EC50) of 11.52. For the same compound, the pEC50 (HCV replicon [3]; Hepatitis C virus, monotherapy (Table 6), read-out: NS5A Inhibitor EC50) was 11.10, the pEC50 (HCV replicon [3]; monotherapy (Table 5), read-out: NS5A Inhibitor EC50) was 11.40 and the pEC50 (HCV replicon [3]; monotherapy (Table 6), read-out: NS5A Inhibitor EC50) was 11.05 and 11.30.
For “rIFNλ1: Recombinant IL-29 expressed in E. coli as a modified N-terminal methionylated form of human IL-29”, the “rIFNλ1 EC50” value (HCV replicon [4]) was 0.52 ng/mL and 0.27 ng/mL and 0.53 ng/mL.
